According to PMC12892976, “Alkylation-based optimization of antifungal FPPS inhibitors yields a potent, broad-spectrum lipophilic zoledronate derivative” (mBio, 2025):
≈ marks a conversion by molar mass, not a printed value.

Assays:
[1] = system: Aspergillus frankstonensis; experiment: checkerboard drug interaction (FICI, MICc);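 further: simplified diagonal checkerboard screen pairing antifungals with FPPS inhibitors, FICI calculated using the Loewe additivity model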
Description: (§2) Drug interactions between antifungals and FPPS inhibitors were investigated using a simplified checkerboard diagonal screening method ([45]). […] FICIs were determined according to the Loewe additivity model ([17]).

Aspergillus niger = experiment: checkerboard drug interaction (FICI, MICc); format: cell-based;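 further: simplified diagonal checkerboard screen pairing antifungals with FPPS inhibitors, FICI calculated under the Loewe additivity model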
Description: as §2

Aspergillus udagawae [2] = experiment: MIC broth microdilution (CLSI); format: cell-based; conditions: Aspergillus udagawae 8G81
Description: (§3) Antifungal susceptibility was determined by broth microdilution according to the CLSI guidelines described in M27-Ed4 ([16]).

Paraphyton cookei = experiment: MIC broth microdilution (CLSI); format: cell-based; conditions: Paraphyton cookei R-639
Description: as §3

[3] = system: Candida albicans biofilms; experiment: biofilm XTT reduction assay (SIC80, SFICI); conditions: for SICc: Candida albicans; for SIC80: agent alone, Candida albicans SC5314
Description: (§4) Biofilms of Cryptococcus were seeded in DMEM, and all other species were seeded in RPMI-1640.

Candida tropicalis = experiment: checkerboard drug interaction (FICI, MICc); format: cell-based;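 further: simplified diagonal checkerboard screen of antifungal plus FPPS inhibitor combinations, with FICI computed by the Loewe additivity model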
Description: as §2

Aspergillus parafelis [4] = experiment: checkerboard drug interaction (FICI, MICc);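 further: simplified diagonal checkerboard screen pairing antifungals with FPPS inhibitors, FICI calculated under the Loewe additivity model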
Description: as §2

Candida parapsilosis [5] = experiment: checkerboard drug interaction (FICI, MICc); format: cell-based;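 further: simplified diagonal checkerboard screen pairing antifungals with FPPS inhibitors, with FICI computed under the Loewe additivity model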
Description: as §2

Mucor circinelloides [6] = experiment: checkerboard drug interaction (FICI, MICc); format: cell-based;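 further: simplified diagonal checkerboard screen pairing antifungals with FPPS inhibitors, FICI calculated under the Loewe additivity model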
Description: as §2

[7] = system: Cryptococcus deuterogattii biofilms; experiment: biofilm XTT reduction assay (SIC80, SFICI); conditions: for SICc: Cryptococcus deuterogattii; for SIC80: agent alone, Cryptococcus deuterogattii R265
Description: as §4

[8] = system: Saccharomyces cerevisiae biofilms; experiment: biofilm XTT reduction assay (SIC80, SFICI); format: cell-based; conditions: for SICc: Saccharomyces cerevisiae; for SIC80: agent alone, Saccharomyces cerevisiae S288c
Description: as §4

Candida parapsilosis [9] = experiment: MIC broth microdilution (CLSI); format: cell-based; conditions: Candida parapsilosis ATCC 22018
Description: Antifungal susceptibility was determined by broth microdilution according to the CLSI guidelines described in M27-Ed4 ([16]). […] MFC was determined by back-plating drug-treated cultures from MIC broths onto SDA plates. The MFC was defined as the lowest concentration from which no colonies could be cultured.

Aspergillus udagawae [10] = experiment: checkerboard drug interaction (FICI, MICc); format: cell-based;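 further: simplified diagonal checkerboard screen pairing antifungals with FPPS inhibitors, FICI calculated using the Loewe additivity model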
Description: as §2

Aspergillus parafelis [11] = experiment: MIC broth microdilution (CLSI); format: cell-based; conditions: Aspergillus parafelis DTO 341-F2
Description: as §3

Cryptococcus gattii = experiment: checkerboard drug interaction (FICI, MICc); format: cell-based;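 further: simplified diagonal checkerboard screen pairing antifungals with FPPS inhibitors, FICI computed under the Loewe additivity model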
Description: as §2

Trichophyton soudanense [12] = experiment: checkerboard drug interaction (FICI, MICc); format: cell-based;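 further: simplified diagonal checkerboard screen pairing antifungals with FPPS inhibitors, FICI computed under the Loewe additivity model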
Description: as §2

Trichophyton soudanense [13] = experiment: MIC broth microdilution (CLSI); conditions: Trichophyton soudanense R-167
Description: as §3

[14] = system: Trichophyton rubrum biofilms; experiment: biofilm XTT reduction assay (SIC80, SFICI); format: cell-based; conditions: biofilm; for SICc: Trichophyton rubrum; for SIC80: agent alone, Trichophyton rubrum 213
Description: as §4

[15] = system: Trichophyton interdigitale; experiment: MIC broth microdilution (CLSI); format: cell-based; conditions: Trichophyton interdigitale R-234
Description: as §3

[16] = system: Cryptococcus neoformans biofilms; experiment: biofilm XTT reduction assay (SIC80, SFICI); conditions: for SICc: Cryptococcus neoformans; for SIC80: agent alone, Cryptococcus neoformans H99
Description: as §4

Fusarium solani = experiment: checkerboard drug interaction (FICI, MICc); format: cell-based;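 further: simplified diagonal checkerboard screen pairing antifungals with FPPS inhibitors, FICI derived under the Loewe additivity model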
Description: as §2

Mucor circinelloides [17] = experiment: MIC broth microdilution (CLSI); format: cell-based; conditions: Mucor circinelloides 80-14-240-5007
Description: as §3

[18] = system: Cryptococcus deneoformans; experiment: MIC broth microdilution (CLSI); format: cell-based; conditions: Cryptococcus deneoformans JEC21
Description: as §3

Cryptococcus tetragattii = experiment: checkerboard drug interaction (FICI, MICc); format: cell-based;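 further: simplified diagonal checkerboard screen pairing antifungals with FPPS inhibitors, with FICI calculated under the Loewe additivity model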
Description: as §2

Candida auris = experiment: checkerboard drug interaction (FICI, MICc); format: cell-based;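 further: simplified diagonal checkerboard screen pairing antifungals with FPPS inhibitors, with FICI computed under the Loewe additivity model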
Description: as §2

[19] = system: Candida glabrata biofilms; experiment: biofilm XTT reduction assay (SIC80, SFICI); format: cell-based; conditions: for SICc: Candida glabrata; for SIC80: agent alone, Candida glabrata CBS138
Description: (§1) […]. […] […].

[20] = system: Aspergillus flavus biofilms; experiment: biofilm XTT reduction assay (SIC80, SFICI); format: cell-based; conditions: for SICc: Aspergillus flavus; for SIC80: agent alone, Aspergillus flavus ATCC 204304
Description: as §1

[21] = system: Aspergillus fumigatus biofilms; experiment: biofilm XTT reduction assay (SIC80, SFICI); format: cell-based; conditions: for SICc: Aspergillus fumigatus; for SIC80: agent alone, Aspergillus fumigatus ATCC 204305
Description: as §1

Scedosporium apiospermum = experiment: checkerboard drug interaction (FICI, MICc); format: cell-based;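 further: simplified diagonal checkerboard screen of antifungal plus FPPS inhibitor pairs, with FICI computed under the Loewe additivity model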
Description: as §2

## CCC(C)n1ncn(-c2ccc(N3CCN(c4ccc(OCC5COC(Cn6cncn6)(c6ccc(Cl)cc6Cl)O5)cc4)CC3)cc2)c1=O (centres unmarked) [ITR, itraconazole]
[1]; in combination with 10-ZOL
  antifungal MICc: 1
[1]; in combination with ZOL
  antifungal MICc: 2
Aspergillus niger; in combination with 10-ZOL
  antifungal MICc: 0.25
Aspergillus niger; in combination with ZOL
  antifungal MICc: 1
Aspergillus udagawae [2]
  MIC / MEC: 1 µg/mL (≈ 1.42 µM)
Paraphyton cookei
  MIC / MEC: 2 µg/mL (≈ 2.83 µM)
[3]; ITR:10-ZOL combination
  SICc: 128 µg/mL
[3]
  SIC80: 256 µg/mL
Candida tropicalis; in combination with 10-ZOL
  antifungal MICc: 0.125
Candida tropicalis; in combination with ZOL
  antifungal MICc: 0.062
Aspergillus parafelis [4]; in combination with 10-ZOL
  antifungal MICc: 2
Aspergillus parafelis [4]; in combination with ZOL
  antifungal MICc: 8
Candida parapsilosis [5]; in combination with 10-ZOL
  antifungal MICc: 0.125
Candida parapsilosis [5]; in combination with ZOL
  antifungal MICc: 0.062
Mucor circinelloides [6]; in combination with 10-ZOL
  antifungal MICc: 0.25
Mucor circinelloides [6]; in combination with ZOL
  antifungal MICc: 0.06
[7]; ITR:10-ZOL combination
  SICc: 64 µg/mL
[7]
  SIC80: 128 µg/mL
[8]; ITR:10-ZOL combination
  SICc: 16 µg/mL
[8]
  SIC80: 32 µg/mL
Candida parapsilosis [9]
  MIC / MEC: 0.25 µg/mL (≈ 0.354 µM)
Aspergillus udagawae [10]; in combination with 10-ZOL
  antifungal MICc: 0.25
Aspergillus udagawae [10]; in combination with ZOL
  antifungal MICc: 0.5
Aspergillus parafelis [11]
  MIC / MEC: 8 µg/mL (≈ 11.3 µM)
Cryptococcus gattii; in combination with 10-ZOL
  antifungal MICc: 0.125
Cryptococcus gattii; in combination with ZOL
  antifungal MICc: 0.125
Trichophyton soudanense [12]; in combination with 10-ZOL
  antifungal MICc: 0.25
Trichophyton soudanense [12]; in combination with ZOL
  antifungal MICc: 0.25
Trichophyton soudanense [13]
  MIC / MEC: 0.5 µg/mL (≈ 0.709 µM)
[14]; ITR:10-ZOL combination
  SICc: 64 µg/mL
[14]
  SIC80: >256 µg/mL
[15]
  MIC / MEC: 1 µg/mL (≈ 1.42 µM)
[16]; ITR:10-ZOL combination
  SICc: 32 µg/mL
[16]
  SIC80: 64 µg/mL
Fusarium solani; in combination with 10-ZOL
  antifungal MICc: 1
Fusarium solani; in combination with ZOL
  antifungal MICc: 0.5
Mucor circinelloides [17]
  MIC / MEC: 0.5 µg/mL (≈ 0.709 µM)
[18]
  MIC / MEC: 0.06 µg/mL (≈ 0.085 µM)
Cryptococcus tetragattii; in combination with 10-ZOL
  antifungal MICc: 0.25
Cryptococcus tetragattii; in combination with ZOL
  antifungal MICc: 1
Candida auris; in combination with 10-ZOL
  antifungal MICc: 1
Candida auris; in combination with ZOL
  antifungal MICc: 1
[19]; ITR:10-ZOL combination
  SICc: 128 µg/mL
[19]
  SIC80: 256 µg/mL
[20]; ITR:10-ZOL combination
  SICc: 64 µg/mL
[20]
  SIC80: 128 µg/mL
[21]; ITR:10-ZOL combination
  SICc: 128 µg/mL
[21]
  SIC80: 256 µg/mL
Scedosporium apiospermum; in combination with 10-ZOL
  antifungal MICc: 4
Scedosporium apiospermum; in combination with ZOL
  antifungal MICc: 4

## CC(=O)N1CCN(c2ccc(OCC3COC(Cn4ccnc4)(c4ccc(Cl)cc4Cl)O3)cc2)CC1 (centres unmarked) [KET, ketoconazole]
[1]; in combination with 10-ZOL
  antifungal MICc: 1
[1]; in combination with ZOL
  antifungal MICc: 4
Aspergillus niger; in combination with 10-ZOL
  antifungal MICc: 2
Aspergillus niger; in combination with ZOL
  antifungal MICc: 4
Aspergillus udagawae [2]
  MIC / MEC: 8 µg/mL (≈ 15.1 µM)
Paraphyton cookei
  MIC / MEC: 8 µg/mL (≈ 15.1 µM)
[3]; KET:10-ZOL combination
  SICc: 32 µg/mL
[3]
  SIC80: 64 µg/mL
Candida tropicalis; in combination with 10-ZOL
  antifungal MICc: 4
Candida tropicalis; in combination with ZOL
  antifungal MICc: 0.5
Aspergillus parafelis [4]; in combination with 10-ZOL
  antifungal MICc: 16
Aspergillus parafelis [4]; in combination with ZOL
  antifungal MICc: 32
Candida parapsilosis [5]; in combination with 10-ZOL
  antifungal MICc: 0.015
Candida parapsilosis [5]; in combination with ZOL
  antifungal MICc: 0.03
Mucor circinelloides [6]; in combination with 10-ZOL
  antifungal MICc: 4
Mucor circinelloides [6]; in combination with ZOL
  antifungal MICc: 8
[7]; KET:10-ZOL combination
  SICc: 32 µg/mL
[7]
  SIC80: 256 µg/mL
[8]; KET:10-ZOL combination
  SICc: 16 µg/mL
[8]
  SIC80: 32 µg/mL
Candida parapsilosis [9]
  MIC / MEC: 0.03 µg/mL (≈ 0.0565 µM)
Aspergillus udagawae [10]; in combination with 10-ZOL
  antifungal MICc: 0.5
Aspergillus udagawae [10]; in combination with ZOL
  antifungal MICc: 2
Aspergillus parafelis [11]
  MIC / MEC: >16 µg/mL
Cryptococcus gattii; in combination with 10-ZOL
  antifungal MICc: 0.125
Cryptococcus gattii; in combination with ZOL
  antifungal MICc: 0.5
Trichophyton soudanense [12]; in combination with 10-ZOL
  antifungal MICc: 0.5
Trichophyton soudanense [12]; in combination with ZOL
  antifungal MICc: 1
Trichophyton soudanense [13]
  MIC / MEC: 4 µg/mL (≈ 7.53 µM)
[14]; KET:10-ZOL combination
  SICc: 64 µg/mL
[14]
  SIC80: 256 µg/mL
[15]
  MIC / MEC: 8 µg/mL (≈ 15.1 µM)
[16]; KET:10-ZOL combination
  SICc: 16 µg/mL
[16]
  SIC80: 32 µg/mL
Fusarium solani; in combination with 10-ZOL
  antifungal MICc: 4
Fusarium solani; in combination with ZOL
  antifungal MICc: 4
Mucor circinelloides [17]
  MIC / MEC: 16 µg/mL (≈ 30.1 µM)
[18]
  MIC / MEC: 0.13 µg/mL (≈ 0.245 µM)
Cryptococcus tetragattii; in combination with 10-ZOL
  antifungal MICc: 0.125
Cryptococcus tetragattii; in combination with ZOL
  antifungal MICc: 0.25
Candida auris; in combination with 10-ZOL
  antifungal MICc: 1
Candida auris; in combination with ZOL
  antifungal MICc: 1
[19]; KET:10-ZOL combination
  SICc: 64 µg/mL
[19]
  SIC80: 256 µg/mL
[20]; KET:10-ZOL combination
  SICc: 64 µg/mL
[20]
  SIC80: 128 µg/mL
[21]; KET:10-ZOL combination
  SICc: 64 µg/mL
[21]
  SIC80: 256 µg/mL
Scedosporium apiospermum; in combination with 10-ZOL
  antifungal MICc: 4
Scedosporium apiospermum; in combination with ZOL
  antifungal MICc: 4

## Nc1nc(=O)[nH]cc1F [5FC, 5-flucytosine]
[1]; in combination with 10-ZOL
  antifungal MICc: 256
[1]; in combination with ZOL
  antifungal MICc: 256
Aspergillus niger; in combination with 10-ZOL
  antifungal MICc: 512
Aspergillus niger; in combination with ZOL
  antifungal MICc: 256
Aspergillus udagawae [2]
  MIC / MEC: >64 µg/mL
Paraphyton cookei
  MIC / MEC: >64 µg/mL
Candida tropicalis; in combination with 10-ZOL
  antifungal MICc: 0.5
Candida tropicalis; in combination with ZOL
  antifungal MICc: 0.125
Aspergillus parafelis [4]; in combination with 10-ZOL
  antifungal MICc: 512
Aspergillus parafelis [4]; in combination with ZOL
  antifungal MICc: 128
Candida parapsilosis [5]; in combination with 10-ZOL
  antifungal MICc: 0.125
Candida parapsilosis [5]; in combination with ZOL
  antifungal MICc: 0.25
Mucor circinelloides [6]; in combination with 10-ZOL
  antifungal MICc: 512
Mucor circinelloides [6]; in combination with ZOL
  antifungal MICc: 512
Candida parapsilosis [9]
  MIC / MEC: 0.5 µg/mL (≈ 3.87 µM)
Aspergillus udagawae [10]; in combination with 10-ZOL
  antifungal MICc: 64
Aspergillus udagawae [10]; in combination with ZOL
  antifungal MICc: 256
Aspergillus parafelis [11]
  MIC / MEC: >64 µg/mL
Cryptococcus gattii; in combination with 10-ZOL
  antifungal MICc: 0.25
Cryptococcus gattii; in combination with ZOL
  antifungal MICc: 0.125
Trichophyton soudanense [12]; in combination with 10-ZOL
  antifungal MICc: 64
Trichophyton soudanense [12]; in combination with ZOL
  antifungal MICc: 64
Trichophyton soudanense [13]
  MIC / MEC: 64 µg/mL (≈ 496 µM)
[15]
  MIC / MEC: >64 µg/mL
Fusarium solani; in combination with 10-ZOL
  antifungal MICc: 512
Fusarium solani; in combination with ZOL
  antifungal MICc: 256
Mucor circinelloides [17]
  MIC / MEC: >64 µg/mL
[18]
  MIC / MEC: 2 µg/mL (≈ 15.5 µM)
Cryptococcus tetragattii; in combination with 10-ZOL
  antifungal MICc: 0.5
Cryptococcus tetragattii; in combination with ZOL
  antifungal MICc: 0.5
Candida auris; in combination with 10-ZOL
  antifungal MICc: 2
Candida auris; in combination with ZOL
  antifungal MICc: 1
Scedosporium apiospermum; in combination with 10-ZOL
  antifungal MICc: 256
Scedosporium apiospermum; in combination with ZOL
  antifungal MICc: 256
